Entries after “also recorded” stand apart in the source; their conditions may differ.
How the values were obtained:
H1 histamine receptor = biological target: T1, H1 histamine receptor (Homo sapiens, UniProt P35367); assay: PDSP primary binding, H1; conditions: n = 4, read-out: Inhibition (primary binding competition efficacy), H1
T1 construct: purchased NIMH Psychoactive Drug Screening Program (PDSP)
Procedure: (§1) For experimental details, please refer to the Psychoactive Drug Screening Program (PDSP) web site http://pdsp.med.unc.edu/.
(§2) ^a The default concentration for primary binding experiments is 10 µM (n = 4). ^b Negative inhibition represents a stimulation of binding. ^c BZPR: Benzodiazepine Receptors (rat brain site). ^d DOR: Delta Opioid Receptor; KOR: Kappa Opioid Receptor; MOR: Mu Opioid Receptor. ^e DAT: Dopamine Transporter; NET: Norepinephrine Transporter; SERT: Serotonin Transporter. ^f NMDA: N-methyl-D-aspartate receptor.

[1] = biological target: T2, human muscle-type α1β1γδ-nAChR (Homo sapiens, UniProt P02708+P07510+Q07001); assay: 86Rb+ ion efflux assay, TE671/RD cells; type: cell-based; conditions: 86Rb+ ion flux assay
T2 construct: TE671/RD naturally expresses human muscle-type α1*-nAChRs; endogenous in cells; host or cells: TE671/RD human clonal cell line
Source text: Cell lines naturally or heterologously expressing specific, functional, human nAChR subtypes were used. The human clonal cell line TE671/RD naturally expresses human muscle-type α1*-nAChRs, containing α1, β1, γ, and δ subunits, with function detectable using ^86Rb^+ efflux assays. […] These cells heterologously express human nAChR chimeric (α6/3) subunits (wherein the extracellular, N-terminal, ligand-binding domain of the human nAChR α6 subunit replaces that domain in the nAChR α3 subunit) along with human β2 and β3 subunits. […] Cells were passaged once a week by splitting just-confluent cultures 1/300 (TE671/RD), 1/10 (SH-SY5Y), or 1/40 (transfected SH-EP1) in serum-supplemented medium to maintain log-phase growth.
One newer modification on these techniques involves low temperature incubation before assays to increase the surface expression of high sensitivity (HS) relative to low sensitivity (LS) α4β2 nAChRs and to enhance surface expression of (α6/3)β2β3-nAChRs. […] In brief, this allows us to determine efficacies of test compounds at LS and HS α4β2 nAChRs, respectively, as the ordinate values of the linear regressions at abscissa values of 0% and 100% of sazetidine-A efficacy.
Results are normalized to responses to a fully efficacious concentration of carbamylcholine (see Materials and Methods for details). […]

5-HT2B = biological target: T3, 5-HT2B (Homo sapiens, UniProt P41595); assay: PDSP primary binding, 5-HT2B; conditions: n = 4, read-out: Inhibition (primary binding competition efficacy), 5-HT2B
T3 construct: purchased NIMH Psychoactive Drug Screening Program (PDSP)
Procedure: as §1, §2

5-HT6 = biological target: T4, 5-HT6 (Homo sapiens, UniProt P50406); assay: PDSP primary binding, 5-HT6; conditions: n = 4, read-out: Inhibition (primary binding competition efficacy), 5-HT6
T4 construct: purchased NIMH Psychoactive Drug Screening Program (PDSP)
Procedure: as §1, §2

CYP2C9 = biological target: T5, CYP2C9 (Homo sapiens, UniProt P11712); assay: CYP2C9 inhibition, HLM, diclofenac substrate; type: in vitro ADME; conditions: 1.0E-05 M
T5 construct: from tissue; host or cells: human liver microsomes (HLM)
Source text: Supplement prp20002-e00026-sd1.doc, table 3: Table 3.

D4 dopamine receptor = biological target: T6, D4 dopamine receptor (Homo sapiens, UniProt P21917); assay: PDSP primary binding, D4; conditions: n = 4, read-out: Inhibition (primary binding competition efficacy), D4
T6 construct: purchased NIMH Psychoactive Drug Screening Program (PDSP)
Procedure: as §1, §2

[2] = Metabolic stability, cryopreserved hepatocytes, mouse; type: in vitro ADME; conditions: CD-1, 1.0E-06 M, 2 h
σ 1 sigma receptor = assay: PDSP primary binding, σ 1; conditions: 10 µM, n = 4
Procedure: as §1, §2

Male Balb/CJ mice = assay: Forced swim test; type: in vivo, mouse
Source text: Male Balb/CJ mice (Jackson Laboratories, Bar Harbor, ME) were used in the forced swim test (FST). Upon receipt, mice were assigned unique identification numbers (tail marked) and were group-housed in OptiMICE ventilated cages. Mice were acclimated to the colony room for at least 1 week prior to drug administration. Mice were 8–10 weeks of age at time of FST.
Procedures have been previously described (Porsolt et al. [1977]). Naïve mice were individually placed into clear glass cylinders (15 cm tall × 10 cm wide, 1 L beakers) containing 23 ± 1°C water 12 cm deep (∼800 mL). […] Thirty minutes following the administration, mice were placed in the water, and the time the animal spent immobile was recorded over a 6-min trial. Immobility was defined as the postural position of floating in the water. Only one session is required for the forced swim test in mice.

5-HT2A = biological target: T7, 5-HT2A (Homo sapiens, UniProt P28223); assay: PDSP primary binding, 5-HT2A; conditions: n = 4, read-out: Inhibition (primary binding competition efficacy), 5-HT2A
T7 construct: purchased NIMH Psychoactive Drug Screening Program (PDSP)
Procedure: as §1, §2

D5 dopamine receptor = biological target: T8, D5 dopamine receptor (Homo sapiens, UniProt P21918); assay: PDSP primary binding, D5; conditions: n = 4, read-out: Inhibition (primary binding competition efficacy), D5
T8 construct: purchased NIMH Psychoactive Drug Screening Program (PDSP)
Procedure: as §1, §2

β1 adrenergic receptor = biological target: T9, β1 adrenergic receptor (Homo sapiens, UniProt P08588); assay: PDSP primary binding, β1; conditions: n = 4, read-out: Inhibition (primary binding competition efficacy), β1
T9 construct: purchased NIMH Psychoactive Drug Screening Program (PDSP)
Procedure: as §1, §2

5-HT1A = biological target: T10, 5-HT1A (Homo sapiens, UniProt P08908); assay: PDSP primary binding, 5-HT1A; conditions: n = 4, read-out: Inhibition (primary binding competition efficacy), 5-HT1A
T10 construct: purchased NIMH Psychoactive Drug Screening Program (PDSP)
Procedure: as §1, §2

M5 muscarinic receptor = biological target: T11, M5 muscarinic receptor (Homo sapiens, UniProt P08912); assay: PDSP primary binding, M5; conditions: n = 4, read-out: Inhibition (primary binding competition efficacy), M5
T11 construct: purchased NIMH Psychoactive Drug Screening Program (PDSP)
Procedure: as §1, §2

MOR: Mu Opioid Receptor = biological target: T12, MOR: Mu Opioid Receptor (Homo sapiens, UniProt P35372); assay: PDSP primary binding, MOR; conditions: n = 4, read-out: Inhibition (primary binding competition efficacy), MOR
T12 construct: purchased NIMH Psychoactive Drug Screening Program (PDSP)
Procedure: as §1, §2

5-HT1E = biological target: T13, 5-HT1E (Homo sapiens, UniProt P28566); assay: PDSP primary binding, 5-HT1E; conditions: n = 4, read-out: Inhibition (primary binding competition efficacy), 5-HT1E
T13 construct: purchased NIMH Psychoactive Drug Screening Program (PDSP)
Procedure: as §1, §2

C57/BL6J mice = assay: Preliminary acute maximum tolerated dose study; type: in vivo, mouse
[3] = test system: BZPR: Benzodiazepine Receptors (rat brain site); assay: PDSP primary binding, BZPR; conditions: 10 µM, n = 4
Procedure: as §1, §2

T11 sequence (P08912 whole entry): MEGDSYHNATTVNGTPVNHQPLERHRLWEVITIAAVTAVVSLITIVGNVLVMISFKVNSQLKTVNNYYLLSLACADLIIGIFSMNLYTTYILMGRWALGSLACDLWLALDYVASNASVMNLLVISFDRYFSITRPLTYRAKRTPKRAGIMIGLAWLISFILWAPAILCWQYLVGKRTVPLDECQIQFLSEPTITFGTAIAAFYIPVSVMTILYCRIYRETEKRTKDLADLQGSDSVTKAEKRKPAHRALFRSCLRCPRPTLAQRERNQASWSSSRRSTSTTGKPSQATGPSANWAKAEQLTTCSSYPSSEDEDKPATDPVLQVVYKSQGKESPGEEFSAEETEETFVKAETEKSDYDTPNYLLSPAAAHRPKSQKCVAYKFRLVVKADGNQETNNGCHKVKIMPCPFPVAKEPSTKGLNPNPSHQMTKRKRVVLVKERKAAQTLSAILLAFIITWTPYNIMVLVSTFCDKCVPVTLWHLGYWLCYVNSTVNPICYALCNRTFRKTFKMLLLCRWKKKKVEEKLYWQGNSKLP
T12 sequence (P35372 whole entry): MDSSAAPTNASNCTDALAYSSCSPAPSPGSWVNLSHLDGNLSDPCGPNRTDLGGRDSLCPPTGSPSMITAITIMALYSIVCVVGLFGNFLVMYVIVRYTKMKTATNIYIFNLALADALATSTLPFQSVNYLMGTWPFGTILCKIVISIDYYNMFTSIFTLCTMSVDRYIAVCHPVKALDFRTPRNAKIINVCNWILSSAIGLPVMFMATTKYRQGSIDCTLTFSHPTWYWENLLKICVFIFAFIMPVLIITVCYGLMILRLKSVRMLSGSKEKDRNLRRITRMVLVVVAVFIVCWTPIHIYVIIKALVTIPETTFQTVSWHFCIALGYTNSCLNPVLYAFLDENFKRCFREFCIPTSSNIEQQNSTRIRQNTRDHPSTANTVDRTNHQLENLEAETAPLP
T8 sequence (P21918 whole entry): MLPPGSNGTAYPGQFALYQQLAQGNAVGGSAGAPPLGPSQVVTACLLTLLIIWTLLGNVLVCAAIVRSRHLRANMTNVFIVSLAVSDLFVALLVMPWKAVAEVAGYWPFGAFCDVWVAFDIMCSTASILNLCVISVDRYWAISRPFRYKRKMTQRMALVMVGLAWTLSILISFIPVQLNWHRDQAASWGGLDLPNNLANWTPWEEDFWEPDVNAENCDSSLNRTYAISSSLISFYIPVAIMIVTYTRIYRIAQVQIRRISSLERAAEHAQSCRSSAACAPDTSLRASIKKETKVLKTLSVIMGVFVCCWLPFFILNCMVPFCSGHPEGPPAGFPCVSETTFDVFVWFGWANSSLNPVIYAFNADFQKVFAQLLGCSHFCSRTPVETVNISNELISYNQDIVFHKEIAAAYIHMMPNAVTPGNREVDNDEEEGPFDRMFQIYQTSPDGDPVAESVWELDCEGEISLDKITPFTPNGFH
T4 sequence (P50406 whole entry): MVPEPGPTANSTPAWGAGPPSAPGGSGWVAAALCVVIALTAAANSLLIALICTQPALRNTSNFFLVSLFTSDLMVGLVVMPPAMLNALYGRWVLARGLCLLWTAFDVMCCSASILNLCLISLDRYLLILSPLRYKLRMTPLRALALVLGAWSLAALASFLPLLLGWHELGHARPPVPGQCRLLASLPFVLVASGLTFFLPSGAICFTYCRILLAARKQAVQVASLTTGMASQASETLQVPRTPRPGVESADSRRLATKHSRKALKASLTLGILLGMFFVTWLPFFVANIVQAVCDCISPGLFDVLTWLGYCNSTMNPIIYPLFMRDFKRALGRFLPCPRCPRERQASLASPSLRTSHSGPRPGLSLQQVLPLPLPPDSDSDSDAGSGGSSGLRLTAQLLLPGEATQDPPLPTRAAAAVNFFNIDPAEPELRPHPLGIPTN
T5 sequence (P11712 whole entry): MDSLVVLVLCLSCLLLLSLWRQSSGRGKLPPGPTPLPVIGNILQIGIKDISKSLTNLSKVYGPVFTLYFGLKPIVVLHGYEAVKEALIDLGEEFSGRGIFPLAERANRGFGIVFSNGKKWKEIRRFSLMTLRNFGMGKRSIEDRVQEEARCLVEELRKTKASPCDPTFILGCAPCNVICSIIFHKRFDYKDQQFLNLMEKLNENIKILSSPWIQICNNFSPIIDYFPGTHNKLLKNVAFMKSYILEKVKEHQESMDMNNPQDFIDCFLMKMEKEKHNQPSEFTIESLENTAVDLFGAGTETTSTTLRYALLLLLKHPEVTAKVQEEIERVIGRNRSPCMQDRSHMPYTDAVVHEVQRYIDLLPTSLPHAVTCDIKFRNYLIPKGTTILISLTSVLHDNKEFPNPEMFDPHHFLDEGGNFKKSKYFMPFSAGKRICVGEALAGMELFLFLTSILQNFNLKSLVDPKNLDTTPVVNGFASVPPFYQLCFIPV
T10 sequence (P08908 whole entry): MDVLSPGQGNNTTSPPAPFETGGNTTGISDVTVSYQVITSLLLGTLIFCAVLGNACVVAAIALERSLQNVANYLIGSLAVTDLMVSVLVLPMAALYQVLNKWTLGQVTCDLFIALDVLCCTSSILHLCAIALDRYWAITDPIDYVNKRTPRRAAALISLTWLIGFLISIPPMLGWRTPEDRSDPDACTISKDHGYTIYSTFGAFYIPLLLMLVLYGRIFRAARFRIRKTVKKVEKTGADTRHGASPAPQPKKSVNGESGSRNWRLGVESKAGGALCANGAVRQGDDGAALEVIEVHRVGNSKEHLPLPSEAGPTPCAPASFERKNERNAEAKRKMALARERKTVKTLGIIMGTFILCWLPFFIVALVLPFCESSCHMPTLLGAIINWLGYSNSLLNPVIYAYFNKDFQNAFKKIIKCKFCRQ
T9 sequence (P08588 whole entry): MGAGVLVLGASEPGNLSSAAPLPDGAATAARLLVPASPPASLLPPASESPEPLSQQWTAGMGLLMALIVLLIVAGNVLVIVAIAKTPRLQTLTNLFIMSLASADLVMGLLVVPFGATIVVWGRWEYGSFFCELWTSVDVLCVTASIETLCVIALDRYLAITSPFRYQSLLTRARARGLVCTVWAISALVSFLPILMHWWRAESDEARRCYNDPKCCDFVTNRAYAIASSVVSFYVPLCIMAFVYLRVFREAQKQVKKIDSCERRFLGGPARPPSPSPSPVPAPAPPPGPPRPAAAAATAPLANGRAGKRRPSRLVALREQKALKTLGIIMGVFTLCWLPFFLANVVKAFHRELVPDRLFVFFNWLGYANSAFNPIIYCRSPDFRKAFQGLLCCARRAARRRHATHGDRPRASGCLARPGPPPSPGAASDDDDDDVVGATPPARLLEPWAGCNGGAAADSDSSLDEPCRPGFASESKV
T7 sequence (P28223 whole entry): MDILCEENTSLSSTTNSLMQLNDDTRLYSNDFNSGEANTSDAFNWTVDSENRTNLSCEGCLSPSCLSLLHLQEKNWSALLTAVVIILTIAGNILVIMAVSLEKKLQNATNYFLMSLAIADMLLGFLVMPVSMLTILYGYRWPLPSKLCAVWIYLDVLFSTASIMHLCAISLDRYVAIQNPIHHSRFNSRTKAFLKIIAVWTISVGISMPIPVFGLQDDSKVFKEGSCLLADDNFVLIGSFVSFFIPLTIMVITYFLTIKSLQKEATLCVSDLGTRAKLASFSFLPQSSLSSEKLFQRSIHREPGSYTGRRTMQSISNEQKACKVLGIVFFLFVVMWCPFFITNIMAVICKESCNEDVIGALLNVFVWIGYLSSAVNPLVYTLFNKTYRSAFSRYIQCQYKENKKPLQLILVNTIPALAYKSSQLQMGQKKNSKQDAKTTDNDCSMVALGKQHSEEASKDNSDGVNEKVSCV
T3 sequence (P41595 whole entry): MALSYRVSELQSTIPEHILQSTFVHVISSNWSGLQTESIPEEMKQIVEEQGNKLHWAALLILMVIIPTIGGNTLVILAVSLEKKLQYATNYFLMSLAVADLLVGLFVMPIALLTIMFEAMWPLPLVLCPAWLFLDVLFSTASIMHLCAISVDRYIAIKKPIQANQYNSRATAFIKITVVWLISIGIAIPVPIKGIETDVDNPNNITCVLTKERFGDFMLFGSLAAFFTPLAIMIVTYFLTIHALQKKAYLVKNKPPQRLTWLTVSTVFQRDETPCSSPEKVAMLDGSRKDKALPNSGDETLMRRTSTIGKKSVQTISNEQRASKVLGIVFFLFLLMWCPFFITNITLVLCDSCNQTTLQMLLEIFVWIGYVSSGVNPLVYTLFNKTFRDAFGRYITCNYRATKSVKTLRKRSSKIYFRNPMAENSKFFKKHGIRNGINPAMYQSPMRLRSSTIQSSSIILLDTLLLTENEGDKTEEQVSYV
T1 sequence (P35367 whole entry): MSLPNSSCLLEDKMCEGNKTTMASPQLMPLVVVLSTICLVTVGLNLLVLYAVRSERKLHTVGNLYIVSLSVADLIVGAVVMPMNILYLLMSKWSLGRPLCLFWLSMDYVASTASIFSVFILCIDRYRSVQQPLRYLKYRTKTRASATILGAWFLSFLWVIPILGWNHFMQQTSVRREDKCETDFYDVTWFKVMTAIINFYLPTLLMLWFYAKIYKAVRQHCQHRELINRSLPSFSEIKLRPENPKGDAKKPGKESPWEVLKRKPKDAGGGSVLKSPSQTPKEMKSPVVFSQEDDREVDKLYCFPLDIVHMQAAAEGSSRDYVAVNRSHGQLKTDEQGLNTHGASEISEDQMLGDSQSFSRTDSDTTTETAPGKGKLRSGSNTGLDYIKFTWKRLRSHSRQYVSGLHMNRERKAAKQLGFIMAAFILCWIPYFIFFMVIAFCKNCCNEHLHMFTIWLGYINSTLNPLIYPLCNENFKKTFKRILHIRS

In the case of `OCCc1cc(-c2cncc(OC[C@@H]3CCN3)c2)on1` [LF-3-88, 2-[5-[5-(2(S)-azetidinylmethoxyl)-3-pyridyl]-3-isoxazolyl]ethanol], the inhibition at 10 µM (H1 histamine receptor) is reported as -6%, the “agonist or antagonist activity at muscle-type α1β1γδ-nAChRs” value [1] is reported as “no significant agonist or antagonist activity” and the inhibition at 10 µM (5-HT2B) is reported as 7.9%. For the same compound, the inhibition at 10 µM (5-HT6) was -1.9%, the “CYP2C9 Inhibition” value (CYP2C9) was 4% and the inhibition at 10 µM (D4 dopamine receptor) was -2.5%. The “Remaining (metabolic stability)” value [2] was 91%, the “Inhibition (primary binding competition efficacy), σ 1” value (σ 1 sigma receptor) was 15.8% and the “immobility in forced swim test” value (Male Balb/CJ mice; 1, 3, and 10 mg/kg, p.o.) was “decreased immobility; also recorded: reduce the immobility dose-dependently”. The “immobility in forced swim test” value (Male Balb/CJ mice; 1 and 3 mg/kg, i.p., 30 min pretreatment, 6-min trial, vs water) was “decreased immobility; also recorded: dose-dependently reduced immobility”, the “minimum effective dose in forced swim test” value (Male Balb/CJ mice; i.p.) was 1 mg/kg and the inhibition at 10 µM (5-HT2A) was 34.1%. For the same compound, the inhibition at 10 µM (D5 dopamine receptor) was 5.8%, the inhibition at 10 µM (β1 adrenergic receptor) was 1.7% and the inhibition at 10 µM (5-HT1A) was 4.2%. For the same compound, the inhibition at 10 µM (M5 muscarinic receptor) was -9.4%, the inhibition at 10 µM (MOR: Mu Opioid Receptor) was 5.7% and the inhibition at 10 µM (5-HT1E) was -3%. The “dose above which temperature and active behaviors temporarily decreased” value (C57/BL6J mice; acute) was “above 100 mg/kg”, the “serious toxic side effects or mortality” value (C57/BL6J mice; up to 300 mg/kg) was “no serious toxic side effects or mortality” and the “Inhibition (primary binding competition efficacy), BZPR” value [3] was 6.7%.

From publication PMC4184702 (Pharmacology Research & Perspectives, 2014)
